The results in this text go back to ChEMBL document CHEMBL1128135, “Synthesis and biological evaluation of new arylthiophene analogs of DuP 753” (Bioorg Med Chem Lett, 1995).

The term pIC50 denotes the negative decadic logarithm of the IC50, by convention in mol/L.

pIC50: −log10 of the molar value.

The species named for the experiment is Oryctolagus cuniculus. In words: In vitro antagonist activity was determined by the ability to antagonize the contractile response to angiotensin II in the isolated rabbit aortic strips. In kind it is functional. The settings on record: Aorta.
For `CCCCc1nc(Cl)c(CO)n1Cc1ccc(-c2ccccc2C(=O)O)cc1`, the pIC50 was 6.92. In turn, `CCCCc1nc(Cl)c(C=O)n1Cc1ccc(-c2ccccc2-c2nn[nH]n2)s1` had a negative-log IC50 (pIC50) of 6.48. Turning to `CCCCc1nc(Cl)c(CO)n1Cc1ccc(-c2ccccc2C(=O)O)s1`, the negative logarithm of the IC50 (pIC50) is 5.38. Turning to `CCCCc1nc(Cl)c(CO)n1Cc1ccc(-c2ccccc2-c2nn[nH]n2)s1`, the pIC50 is 6.48. Compared with the last compound, the pIC50 is 1.10 log units higher. For `CCCCc1nc(Cl)c(CO)n1Cc1ccc(-c2ccccc2-c2nnn[nH]2)cc1` [LOSARTAN], the negative-log IC50 (pIC50) is 8.21. For `CCCCc1nc(Cl)c(C=O)n1Cc1ccc(-c2ccccc2C(=O)O)s1` the value was 5.70.
